Test results: patent US20240158446A1, “CYCLIC COMPOUND HAVING SELECTIVE INHIBITORY ACTION ON KRAS OVER HRAS AND NRAS” (CHUGAI SEIYAKU KABUSHIKI KAISHA, priority 2021, published 2024)

Tests used:
[1] = target: GDP-bound HRAS wild-type protein (Homo sapiens, UniProt P01112); test: Binding to HRAS by surface plasmon resonance (SPR), Single Cycle Kinetics; conditions: SPR; GDP-bound HRAS wild-type protein vs GDP-bound KRAS wild-type protein; KD ratio class
[2] = target: GDP-bound NRAS wild-type protein (Homo sapiens, UniProt P01111); test: Binding to NRAS by surface plasmon resonance (SPR), Single Cycle Kinetics; conditions: SPR; GDP-bound NRAS wild-type protein vs GDP-bound KRAS wild-type protein; KD ratio class
[3] = target: GDP-bound KRAS wild-type protein (Homo sapiens, UniProt P01116); test: Binding to KRAS by surface plasmon resonance (SPR), Single Cycle Kinetics; conditions: SPR, Single Cycle Kinetics, 1:1 binding model; GDP-bound KRAS wild-type protein; read-out: KRAS KD
Sequence of GDP-bound KRAS wild-type protein (P01116 whole entry): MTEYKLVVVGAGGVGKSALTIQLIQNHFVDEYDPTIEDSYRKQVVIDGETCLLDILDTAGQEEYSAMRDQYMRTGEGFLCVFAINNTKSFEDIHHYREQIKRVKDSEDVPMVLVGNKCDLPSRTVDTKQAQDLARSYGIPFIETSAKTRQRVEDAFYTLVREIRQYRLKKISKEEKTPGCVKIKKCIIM

Sequence of GDP-bound NRAS wild-type protein (P01111 whole entry): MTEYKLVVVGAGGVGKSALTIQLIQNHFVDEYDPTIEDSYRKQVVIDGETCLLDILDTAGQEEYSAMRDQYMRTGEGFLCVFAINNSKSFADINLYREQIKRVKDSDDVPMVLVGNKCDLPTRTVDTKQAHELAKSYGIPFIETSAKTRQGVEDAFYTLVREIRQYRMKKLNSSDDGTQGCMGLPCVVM
Sequence of GDP-bound HRAS wild-type protein (P01112 whole entry): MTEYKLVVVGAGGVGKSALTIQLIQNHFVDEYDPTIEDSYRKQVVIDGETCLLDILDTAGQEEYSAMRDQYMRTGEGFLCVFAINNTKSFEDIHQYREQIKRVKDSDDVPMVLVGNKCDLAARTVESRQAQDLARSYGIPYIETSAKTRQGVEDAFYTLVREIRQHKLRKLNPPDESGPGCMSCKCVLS

SMILES: CC[C@H](C)[C@@H]1NC(=O)[C@H](CC2CCCC2)N(C)C(=O)C[C@@H](C(=O)N(C)C)N(C)C(=O)[C@H](C2CCCC2)N(C)C(=O)C2(CCC2)NC(=O)[C@@H]2C[C@@H](F)CN2C(=O)[C@H](CCc2cc(F)c(C(F)(F)F)c(F)c2)NC(=O)CN(C)C(=O)[C@H](Cc2ccc(C(F)(F)F)cc2)N2CC/C=C\C[C@@H](C2=O)N(C)C(=O)CN(C)C1=O [PP1502]
- HRAS/KRAS (ratio of KD value for HRAS to KD value for KRAS) [1]: A (a compound having 10 or more and less than 20 is denoted as A)
- NRAS/KRAS (ratio of KD value for NRAS to KD value for KRAS) [2]: A (a compound having 10 or more and less than 20 is denoted as A)
- Kd [3]: 38 pM

SMILES: CC[C@H](C)[C@@H]1NC(=O)[C@H](CC2CC2)N(C)C(=O)C[C@@H](C(=O)N2CCCC2)N(C)C(=O)[C@H](C2CCCC2)N(C)C(=O)C2(CCCC2)NC(=O)[C@@H]2C[C@@H](F)CN2C(=O)[C@H](CCc2cc(F)c(C(F)(F)F)c(F)c2)NC(=O)CN(C)C(=O)[C@H](Cc2ccc(C(F)(F)F)cc2)N2CC/C=C\C[C@@H](C2=O)N(C)C(=O)CN(C)C1=O [PP1503]
- HRAS/KRAS (ratio of KD value for HRAS to KD value for KRAS) [1]: A (a compound having 10 or more and less than 20 is denoted as A)
- NRAS/KRAS (ratio of KD value for NRAS to KD value for KRAS) [2]: A (a compound having 10 or more and less than 20 is denoted as A)
- Kd [3]: 110 pM

SMILES: CC[C@H](C)[C@@H]1NC(=O)[C@H](CC2CC2)N(C)C(=O)C[C@@H](C(=O)N(C)C)N(C)C(=O)[C@H](C2CCCC2)N(C)C(=O)C2(CC(C)(C)C2)NC(=O)[C@@H]2C[C@@H](C(F)(F)F)CN2C(=O)[C@H](CCc2cc(F)c(C(F)(F)F)c(F)c2)NC(=O)CN(C)C(=O)[C@H](Cc2ccc(C(F)(F)F)cc2)N2CC/C=C\C[C@@H](C2=O)N(C)C(=O)CN(C)C1=O [PP1504]
- HRAS/KRAS (ratio of KD value for HRAS to KD value for KRAS) [1]: A (a compound having 10 or more and less than 20 is denoted as A)
- NRAS/KRAS (ratio of KD value for NRAS to KD value for KRAS) [2]: A (a compound having 10 or more and less than 20 is denoted as A)
- Kd [3]: 320 pM

SMILES: CC[C@H](C)[C@@H]1NC(=O)[C@H](CC2CCCC2)N(C)C(=O)C[C@@H](C(=O)N(C)C)N(C)C(=O)[C@H](C2CCCC2)N(C)C(=O)C2(CCC2)NC(=O)[C@@H]2C[C@@H](C(F)(F)F)CN2C(=O)[C@H](CCc2cc(F)c(C(F)(F)F)c(F)c2)NC(=O)CN(C)C(=O)[C@H](Cc2ccc(C(F)(F)F)cc2)N2CC/C=C\C[C@@H](C2=O)N(C)C(=O)CN(C)C1=O [PP1505]
- HRAS/KRAS (ratio of KD value for HRAS to KD value for KRAS) [1]: A (a compound having 10 or more and less than 20 is denoted as A)
- NRAS/KRAS (ratio of KD value for NRAS to KD value for KRAS) [2]: A (a compound having 10 or more and less than 20 is denoted as A)
- Kd [3]: 92 pM

SMILES: CC[C@H](C)[C@@H]1NC(=O)[C@H](CC2CC2)N(C)C(=O)C[C@@H](C(=O)N2CCCC2)N(C)C(=O)[C@H](C2CCCC2)N(C)C(=O)C2(CCCC2)NC(=O)[C@@H]2C[C@@H](C(F)(F)F)CN2C(=O)[C@H](CCc2cc(F)c(C(F)(F)F)c(F)c2)NC(=O)CN(C)C(=O)[C@H](Cc2ccc(C(F)(F)F)cc2)N2CC/C=C\C[C@@H](C2=O)N(C)C(=O)CN(C)C1=O [PP1506]
- HRAS/KRAS (ratio of KD value for HRAS to KD value for KRAS) [1]: A (a compound having 10 or more and less than 20 is denoted as A)
- NRAS/KRAS (ratio of KD value for NRAS to KD value for KRAS) [2]: AA (a compound having 20 or more is denoted as AA)
- Kd [3]: 340 pM

SMILES: CC[C@H](C)[C@@H]1NC(=O)[C@H](CC2CC2)N(C)C(=O)C[C@@H](C(=O)N(C)C)N(C)C(=O)[C@H](C2CCCC2)N(C)C(=O)C2(CC(C)(C)C2)NC(=O)[C@@H]2C[C@@H](C(F)(F)F)CN2C(=O)[C@H](CCc2cc(F)c(C(F)(F)F)c(F)c2)NC(=O)CN(C)C(=O)[C@H](Cc2ccc(F)cc2)N2CC/C=C\C[C@@H](C2=O)N(C)C(=O)CN(C)C1=O [PP1507]
- HRAS/KRAS (ratio of KD value for HRAS to KD value for KRAS) [1]: A (a compound having 10 or more and less than 20 is denoted as A)
- NRAS/KRAS (ratio of KD value for NRAS to KD value for KRAS) [2]: A (a compound having 10 or more and less than 20 is denoted as A)
- Kd [3]: 170 pM

SMILES: CC[C@H](C)[C@@H]1NC(=O)[C@H](CC2CC2)N(C)C(=O)C[C@@H](C(=O)N2CCCC2)N(C)C(=O)[C@H](C2CCCC2)N(C)C(=O)C2(CCC2)NC(=O)[C@@H]2C[C@H](C)CN2C(=O)[C@H](CCc2cc(F)c(C(F)(F)F)c(F)c2)NC(=O)CN(C)C(=O)[C@H](Cc2ccc(C(F)(F)F)cc2)N2CC/C=C\C[C@@H](C2=O)N(C)C(=O)CN(C)C1=O [PP1510, (2S,8S,12S,14S,20S,23S,27S,30S,36S,38Z)-20-cyclopentyl-27-(cyclopropylmethyl)-8-[2-[3,5-difluoro-4-(trifluoromethyl)phenyl]ethyl]-4,12,19,22,26,32,35-heptamethyl-30-[(1S)-1-methylpropyl]-23-(pyrrolidine-1-carbonyl)-2-[[4-(trifluoromethyl)phenyl]methyl]spiro[1,4,7,10,16,19,22,26,29,32,35-undecazatricyclo[34.5.1.0^10,14]dotetracont-38-ene-17,1′-cyclobutane]-3,6,9,15,18,21,25,28,31,34,42-undecone]
- HRAS/KRAS (ratio of KD value for HRAS to KD value for KRAS) [1]: A (a compound having 10 or more and less than 20 is denoted as A)
- NRAS/KRAS (ratio of KD value for NRAS to KD value for KRAS) [2]: AA (a compound having 20 or more is denoted as AA)
- Kd [3]: 110 pM

SMILES: CC[C@H](C)[C@@H]1NC(=O)[C@H](CC2CC2)N(C)C(=O)C[C@@H](C(=O)N(C)C)N(C)C(=O)[C@H](C2CCCC2)N(C)C(=O)C2(CCCC2)NC(=O)[C@@H]2C[C@H](C)CN2C(=O)[C@H](CCc2cc(F)c(C(F)(F)F)c(F)c2)NC(=O)CN(C)C(=O)[C@H](Cc2ccc(C(F)(F)F)cc2)N2CC/C=C\C[C@@H](C2=O)N(C)C(=O)CN(C)C1=O [PP1511, (2S,8S,12S,14S,20S,23S,27S,30S,36S,38Z)-20-cyclopentyl-27-(cyclopropylmethyl)-8-[2-[3,5-difluoro-4-(trifluoromethyl)phenyl]ethyl]-N,N,4,12,19,22,26,32,35-nonamethyl-30-[(1S)-1-methylpropyl]-3,6,9,15,18,21,25,28,31,34,42-undecaoxo-2-[[4-(trifluoromethyl)phenyl]methyl]spiro[1,4,7,10,16,19,22,26,29,32,35-undecazatricyclo[34.5.1.0^10,14]dotetracont-38-ene-17,1′-cyclopentane]-23-carboxamide]
- HRAS/KRAS (ratio of KD value for HRAS to KD value for KRAS) [1]: A (a compound having 10 or more and less than 20 is denoted as A)
- NRAS/KRAS (ratio of KD value for NRAS to KD value for KRAS) [2]: AA (a compound having 20 or more is denoted as AA)
- Kd [3]: 99 pM

SMILES: CC[C@H](C)[C@@H]1NC(=O)[C@H](CC2CC2)N(C)C(=O)C[C@@H](C(=O)N2CCCC2)N(C)C(=O)[C@H](C2CCCC2)N(C)C(=O)C2(CCC2)NC(=O)[C@@H]2CC(F)(F)CN2C(=O)[C@H](CCc2cc(F)c(C(F)(F)F)c(F)c2)NC(=O)CN(C)C(=O)[C@H](Cc2ccc(C(F)(F)F)cc2)N2CC/C=C\C[C@@H](C2=O)N(C)C(=O)CN(C)C1=O [PP1512]
- HRAS/KRAS (ratio of KD value for HRAS to KD value for KRAS) [1]: A (a compound having 10 or more and less than 20 is denoted as A)
- NRAS/KRAS (ratio of KD value for NRAS to KD value for KRAS) [2]: AA (a compound having 20 or more is denoted as AA)
- Kd [3]: 84 pM

SMILES: CC[C@H](C)[C@@H]1NC(=O)[C@H](CC2CC2)N(C)C(=O)C[C@@H](C(=O)N(C)C)N(C)C(=O)[C@H](C2CCCC2)N(C)C(=O)C2(CCCC2)NC(=O)[C@@H]2CC(F)(F)CN2C(=O)[C@H](CCc2cc(F)c(C(F)(F)F)c(F)c2)NC(=O)CN(C)C(=O)[C@H](Cc2ccc(C(F)(F)F)cc2)N2CC/C=C\C[C@@H](C2=O)N(C)C(=O)CN(C)C1=O [PP1513, (2S,8S,14S,20S,23S,27S,30S,36S,38Z)-20-cyclopentyl-27-(cyclopropylmethyl)-8-[2-[3,5-difluoro-4-(trifluoromethyl)phenyl]ethyl]-12,12-difluoro-N,N,4,19,22,26,32,35-octamethyl-30-[(1S)-1-methylpropyl]-3,6,9,15,18,21,25,28,31,34,42-undecaoxo-2-[[4-(trifluoromethyl)phenyl]methyl]spiro[1,4,7,10,16,19,22,26,29,32,35-undecazatricyclo[34.5.1.0^10,14]dotetracont-38-ene-17,1′-cyclopentane]-23-carboxamide]
- HRAS/KRAS (ratio of KD value for HRAS to KD value for KRAS) [1]: A (a compound having 10 or more and less than 20 is denoted as A)
- NRAS/KRAS (ratio of KD value for NRAS to KD value for KRAS) [2]: A (a compound having 10 or more and less than 20 is denoted as A)
- Kd [3]: 71 pM

SMILES: CCO[C@@H]1C[C@H]2C(=O)NC3(CCC3)C(=O)N(C)[C@@H](C(CC)CC)C(=O)N(C)[C@H](C(=O)N(C)C)CC(=O)N(C)[C@@H](CC3CCCC3)C(=O)N[C@@H]([C@@H](C)CC)C(=O)N(C)CC(=O)N(C)[C@H]3C/C=C\CCN(C3=O)[C@@H](Cc3ccc(F)cc3C)C(=O)N(C)CC(=O)N[C@@H](CCc3cc(F)c(C(F)(F)F)c(F)c3)C(=O)N2C1 [PP1516]
- HRAS/KRAS (ratio of KD value for HRAS to KD value for KRAS) [1]: B (a compound having 3 or more and less than 10 is denoted as B)
- NRAS/KRAS (ratio of KD value for NRAS to KD value for KRAS) [2]: A (a compound having 10 or more and less than 20 is denoted as A)
- Kd [3]: 980 pM

SMILES: CCO[C@@H]1C[C@H]2C(=O)NC3(CCC3)C(=O)N(C)[C@@H](C(CC)CC)C(=O)N(C)[C@H](C(=O)N(C)C)CC(=O)N(C)[C@@H](CC3CCCC3)C(=O)N[C@@H]([C@@H](C)CC)C(=O)N(C)CC(=O)N(C)[C@H]3C/C=C\CCN(C3=O)[C@@H](Cc3ccc(F)cc3)C(=O)N(C)CC(=O)N[C@@H](CCc3cc(F)c(C(F)(F)F)c(F)c3)C(=O)N2C1 [PP1517]
- HRAS/KRAS (ratio of KD value for HRAS to KD value for KRAS) [1]: A (a compound having 10 or more and less than 20 is denoted as A)
- NRAS/KRAS (ratio of KD value for NRAS to KD value for KRAS) [2]: A (a compound having 10 or more and less than 20 is denoted as A)
- Kd [3]: 430 pM
